How the values were obtained:
[1] = Cmax in CD-1 mouse large intestine at 10 mg/kg, ip after 10 to 1440 mins by LC/MS analysis; format: ADME, organism-based; set-up: dose 10 mg/kg, route intraperitoneal
[2] = Cmax in CD-1 mouse large intestine at 10 mg/kg, iv after 10 to 1440 mins by LC/MS analysis; format: ADME, organism-based; set-up: dose 10 mg/kg, route intravenous
[3] = Tmax in CD-1 mouse large intestine at 10 mg/kg, ip after 10 to 1440 mins by LC/MS analysis; format: ADME, organism-based
[4] = Tmax in CD-1 mouse large intestine at 10 mg/kg, iv after 10 to 1440 mins by LC/MS analysis; format: ADME, organism-based
[5] = AUClast in CD-1 mouse Large intestine at 10 mg/kg, ip after 10 to 1440 mins by LC/MS analysis; format: ADME, organism-based; details: in vivo
[6] = AUClast in CD-1 mouse Large intestine at 10 mg/kg, iv after 10 to 1440 mins by LC/MS analysis; format: ADME, organism-based; details: in vivo
[7] = Volume of distribution in CD-1 mouse by LC-MS/MS analysis; format: ADME; details: in vivo
[8] = Cmax in CD-1 mouse large intestine at 5 mg/kg, iv after 10 to 1440 mins by LC/MS analysis; format: ADME, organism-based; set-up: dose 5 mg/kg, route intravenous
[9] = Cmax in CD-1 mouse large intestine at 20 mg/kg, po after 10 to 1440 mins by LC/MS analysis; format: ADME, organism-based; set-up: dose 20 mg/kg, route oral
[10] = Tmax in CD-1 mouse large intestine at 5 mg/kg, iv after 10 to 1440 mins by LC/MS analysis; format: ADME, organism-based
[11] = Tmax in CD-1 mouse large intestine at 20 mg/kg, po after 10 to 1440 mins by LC/MS analysis; format: ADME, organism-based
[12] = AUClast in CD-1 mouse Large intestine at 5 mg/kg, iv after 10 to 1440 mins by LC/MS analysis; format: ADME, organism-based; details: in vivo
[13] = AUClast in CD-1 mouse Large intestine at 20 mg/kg, po after 10 to 1440 mins by LC/MS analysis; format: ADME, organism-based; details: in vivo
[14] = Ratio of drug level in lung to plasma of CD-1 mouse at 5 mg/kg, iv; format: ADME, organism-based

Cmax [1] [ng/g] | Cmax [2] [ng/g] | Tmax [3] [min] | Tmax [4] [min] | AUClast [5] [ng·min/g] | AUClast [6] [ng·min/g] | Vd [7] [L/kg] | Cmax [8] [ng/g] | Cmax [9] [ng/g] | Tmax [10] [min] | Tmax [11] [min] | AUClast [12] [ng·min/g] | AUClast [13] [ng·min/g] | Kp [14] | SMILES
5750 | 2970 | 10 | 10 | 633289 | 559037 | 5.87 to 63 |  |  |  |  |  |  |  | C#CCC1CCN(C2CCN(S(=O)(=O)c3ccc(Br)cc3)CC2)CC1
 | 1410 |  |  |  | 262874 | 5.87 to 63 |  |  |  |  |  |  |  | CC1CCN(C2CCN(S(=O)(=O)c3ccc(Cl)cc3)CC2)CC1
10100 |  | 10 |  | 790425 |  | 5.87 to 63 | 1820 | 3250 | 10 | 10 | 511878 | 890969 | 5.7 | CC1CCN(C2CCN(S(=O)(=O)c3ccc(OC(F)F)cc3)CC2)CC1
10700 |  | 10 |  | 737709 |  |  |  |  |  |  |  |  |  | COc1ccc(S(=O)(=O)N2CCC(N3CCC(C)CC3)CC2)cc1
